# Read-outs that look alike come from different tables or passages of the source.
# Key:
# Test in all cases: HotSpot kinase profiling
# Format in all cases: biochemical
# [1] = biological target: T1, c-MER (Homo sapiens, UniProt Q12866)
# T1 construct: purchased Reaction Biology Corp
# T1 sequence (Q12866 21-999): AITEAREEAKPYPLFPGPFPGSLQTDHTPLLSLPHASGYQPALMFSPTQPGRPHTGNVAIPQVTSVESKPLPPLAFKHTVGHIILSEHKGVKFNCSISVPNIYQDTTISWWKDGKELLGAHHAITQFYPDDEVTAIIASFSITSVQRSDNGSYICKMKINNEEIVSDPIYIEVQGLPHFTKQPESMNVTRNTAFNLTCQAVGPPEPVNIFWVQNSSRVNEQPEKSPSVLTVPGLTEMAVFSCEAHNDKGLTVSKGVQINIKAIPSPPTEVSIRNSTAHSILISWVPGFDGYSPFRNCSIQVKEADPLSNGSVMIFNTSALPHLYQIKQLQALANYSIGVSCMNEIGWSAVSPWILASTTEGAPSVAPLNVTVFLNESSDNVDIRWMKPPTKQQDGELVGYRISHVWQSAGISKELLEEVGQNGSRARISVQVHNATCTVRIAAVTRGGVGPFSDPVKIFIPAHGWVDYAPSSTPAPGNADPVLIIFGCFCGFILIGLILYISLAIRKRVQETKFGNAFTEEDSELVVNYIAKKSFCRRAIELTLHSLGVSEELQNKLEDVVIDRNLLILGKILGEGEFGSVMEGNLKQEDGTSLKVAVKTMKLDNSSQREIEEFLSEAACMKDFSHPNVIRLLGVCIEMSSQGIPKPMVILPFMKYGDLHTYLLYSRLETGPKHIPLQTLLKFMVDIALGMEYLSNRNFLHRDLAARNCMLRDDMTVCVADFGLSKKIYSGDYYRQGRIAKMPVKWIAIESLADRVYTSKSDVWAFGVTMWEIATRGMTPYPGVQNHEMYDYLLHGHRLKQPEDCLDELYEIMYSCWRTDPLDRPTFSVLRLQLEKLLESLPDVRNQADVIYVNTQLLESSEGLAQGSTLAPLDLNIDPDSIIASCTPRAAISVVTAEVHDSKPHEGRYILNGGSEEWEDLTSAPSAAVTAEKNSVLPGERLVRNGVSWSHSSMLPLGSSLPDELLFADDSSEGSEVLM
# Experimental: (§1) The binding assay system for profiling kinase activity were based upon HotSpot technology (Reaction Biology Corp.; Malvern, Pa., USA) and utilized radio-isotope-based P81 filtration. […] Substrates for the various kinases tested against Compound 2 (substrate information available on the Reaction Biology Corp. website) were prepared fresh daily in Reaction Buffer. Any required cofactors were then added to the substrate solution. The identification and selection of the appropriate cofactor for each kinase is within the ability of a person skilled in the art. See, for example, Handbook of Assay Development in Drug Discovery, Ed. Lisa K. Minor, 2006: CRC Press, Boca Raton, Fla.; Gao et al., “A broad activity screen in support of a chemogenomic map for kinase signalling research and drug discovery,” Biochem J. 2013, 451(2): 313-28; and Eglen et al., “Drug discovery and the human kinome: Recent trends,” Pharmacology & Therapeutics 2011, 130(2): 144-156. The kinase was then added to the substrate solution and gently mixed. […] This was followed by incubation at room temperature for 2 h. The reaction was terminated and any unreacted phosphate was washed away using 0.1% phosphoric acid prior to detection utilizing a proprietary technology. […] DMSO was used as the negative control.
# (§2) Percent inhibition was expressed as an average where the assay was performed more than once, e.g., in duplicate.
# [2] = biological target: T2, PKCg (Homo sapiens, UniProt P05129)
# T2 construct: purchased Reaction Biology Corp
# Experimental: as §1, §2
# [3] = biological target: T3, DYRK3 (Homo sapiens, UniProt O43781)
# T3 construct: purchased Reaction Biology Corp
# T3 sequence (O43781 1-588): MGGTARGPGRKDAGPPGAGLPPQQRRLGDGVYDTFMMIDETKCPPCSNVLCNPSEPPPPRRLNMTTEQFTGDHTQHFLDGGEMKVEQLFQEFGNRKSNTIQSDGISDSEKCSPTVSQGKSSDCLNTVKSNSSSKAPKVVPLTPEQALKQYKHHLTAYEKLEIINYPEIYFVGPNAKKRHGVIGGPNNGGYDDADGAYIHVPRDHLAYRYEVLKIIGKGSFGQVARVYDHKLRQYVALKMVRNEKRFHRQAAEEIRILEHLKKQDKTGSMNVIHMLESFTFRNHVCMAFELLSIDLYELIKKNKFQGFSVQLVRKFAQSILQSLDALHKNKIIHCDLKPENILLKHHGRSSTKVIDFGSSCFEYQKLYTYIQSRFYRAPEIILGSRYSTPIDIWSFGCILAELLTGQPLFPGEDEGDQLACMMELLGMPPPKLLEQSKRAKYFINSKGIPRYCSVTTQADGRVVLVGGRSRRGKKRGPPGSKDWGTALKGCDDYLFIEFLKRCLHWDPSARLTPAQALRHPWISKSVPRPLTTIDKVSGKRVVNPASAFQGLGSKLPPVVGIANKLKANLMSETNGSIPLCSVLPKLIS
# Experimental: as §1, §2
# [4] = biological target: T4, MARK3 (Homo sapiens, UniProt P27448)
# T4 construct: purchased Reaction Biology Corp
# T4 sequence (P27448 whole entry): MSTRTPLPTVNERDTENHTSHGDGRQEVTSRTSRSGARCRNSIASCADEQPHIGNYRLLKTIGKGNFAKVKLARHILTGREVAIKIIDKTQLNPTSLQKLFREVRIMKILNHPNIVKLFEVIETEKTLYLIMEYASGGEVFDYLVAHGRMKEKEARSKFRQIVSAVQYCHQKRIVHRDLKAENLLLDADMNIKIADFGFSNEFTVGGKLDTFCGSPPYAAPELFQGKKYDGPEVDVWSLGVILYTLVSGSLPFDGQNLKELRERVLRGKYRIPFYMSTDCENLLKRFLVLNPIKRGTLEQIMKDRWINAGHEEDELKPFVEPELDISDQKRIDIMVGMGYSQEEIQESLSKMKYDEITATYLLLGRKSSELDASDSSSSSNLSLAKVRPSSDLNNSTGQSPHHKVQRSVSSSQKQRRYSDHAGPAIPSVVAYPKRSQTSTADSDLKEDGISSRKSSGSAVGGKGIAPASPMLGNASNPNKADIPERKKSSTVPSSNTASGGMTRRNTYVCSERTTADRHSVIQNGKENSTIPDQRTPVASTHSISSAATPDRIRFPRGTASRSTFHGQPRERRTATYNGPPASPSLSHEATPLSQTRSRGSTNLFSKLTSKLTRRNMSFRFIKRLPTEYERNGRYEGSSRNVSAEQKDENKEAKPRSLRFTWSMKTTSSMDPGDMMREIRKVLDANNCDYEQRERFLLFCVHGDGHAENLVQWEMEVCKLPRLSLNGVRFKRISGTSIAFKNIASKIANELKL
# Experimental: as §1, §2
# [5] = biological target: T5, CK1epsilon (Homo sapiens, UniProt P49674)
# T5 construct: purchased Reaction Biology Corp
# T5 sequence (P49674 whole entry): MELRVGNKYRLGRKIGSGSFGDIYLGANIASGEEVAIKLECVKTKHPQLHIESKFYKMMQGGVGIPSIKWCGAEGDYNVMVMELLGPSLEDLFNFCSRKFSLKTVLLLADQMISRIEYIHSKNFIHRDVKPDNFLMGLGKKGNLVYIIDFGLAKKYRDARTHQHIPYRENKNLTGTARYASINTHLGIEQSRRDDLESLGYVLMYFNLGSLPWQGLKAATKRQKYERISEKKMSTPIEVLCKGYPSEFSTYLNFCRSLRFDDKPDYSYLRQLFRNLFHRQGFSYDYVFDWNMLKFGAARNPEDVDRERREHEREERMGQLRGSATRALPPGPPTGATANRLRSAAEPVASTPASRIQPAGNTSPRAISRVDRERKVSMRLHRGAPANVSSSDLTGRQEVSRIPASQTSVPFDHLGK
# Experimental: as §1, §2
# [6] = biological target: T6, ALK2/ACVR1 (Homo sapiens, UniProt Q04771)
# T6 construct: purchased Reaction Biology Corp
# T6 sequence (Q04771 21-509): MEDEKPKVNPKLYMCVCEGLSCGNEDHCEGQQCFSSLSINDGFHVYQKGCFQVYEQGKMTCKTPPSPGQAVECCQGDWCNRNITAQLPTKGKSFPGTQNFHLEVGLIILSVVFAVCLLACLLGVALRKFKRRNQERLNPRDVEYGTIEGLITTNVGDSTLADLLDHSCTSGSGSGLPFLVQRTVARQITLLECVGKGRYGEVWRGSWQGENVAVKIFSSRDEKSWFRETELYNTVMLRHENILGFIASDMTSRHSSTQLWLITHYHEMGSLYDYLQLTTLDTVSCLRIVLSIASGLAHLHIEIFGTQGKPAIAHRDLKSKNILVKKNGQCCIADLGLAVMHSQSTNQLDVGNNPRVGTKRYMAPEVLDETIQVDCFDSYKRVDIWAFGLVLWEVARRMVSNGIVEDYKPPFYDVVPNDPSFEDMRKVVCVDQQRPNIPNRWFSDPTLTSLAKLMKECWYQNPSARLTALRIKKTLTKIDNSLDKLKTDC
# Experimental: as §1, §2
# [7] = read-out: % Enzyme Activity (relative to DMSO controls) Run 1
# [8] = read-out: % Enzyme Activity (relative to DMSO controls) Run 2
smiles,measurement,setting,value
C=CC(=O)Nc1cccc(Nc2nc(Nc3ccc(OCCOC)c(F)c3)ncc2F)c1 [Compound 2],inhibition at 3 µM,[1],33.6%
same,remaining activity at 3 µM,[1]; [7],66.5%
same,remaining activity at 3 µM,[1]; [8],66.4%
same,inhibition at 3 µM,[2],16%
same,remaining activity at 3 µM,[2]; [7],83.9%
same,remaining activity at 3 µM,[2]; [8],84.2%
same,inhibition at 3 µM,[3],14.1%
same,remaining activity at 3 µM,[3]; [7],86%
same,remaining activity at 3 µM,[3]; [8],85.9%
same,inhibition at 3 µM,[4],-0.92%
same,remaining activity at 3 µM,[4]; [7],101%
same,remaining activity at 3 µM,[4]; [8],100%
same,inhibition at 3 µM,[5],-1.96%
same,remaining activity at 3 µM,[5]; [7],102%
same,remaining activity at 3 µM,[5]; [8],102%
same,remaining activity at 3 µM,[6]; [7],385%
same,remaining activity at 3 µM,[6]; [8],385%
